From patent publication US12295959B2 (priority 2021, dated 2025)

Tests used:
5HT2A sensor = type: cell-based
mice = test: Head-twitch response (HTR); type: in vivo
Method: Head twitch response (HTR) experiments. C57BL/6J Mice (9-10 weeks old) are housed following an IACUC approved protocol. The mice are habituated in the test cage for at least 30 min, injected intraperitoneally with compound (injection volume 5 ml/kg), returned to the empty test cage, and filmed for 20 minutes. Each video is scored for the number of head-twitches by a trained observer blinded to treatment condition.

rat cortical neurons = test: Neurite outgrowth assay; type: cell-based; set-up: key: A: Statistically significant mean increase as a percent of DMSO control at 10 μM or less.; B: No statistically significant mean increase as a percent of DMSO control at 10 μM or less; settings: 72 h, 10 μM or less, vs DMSO control
Description: Neurite Outgrowth Assay. Changes in the pattern of neurite outgrowth have been implicated in psychiatric and neurodegenerative disorders as well as traumatic injuries. The discovery of new compounds that can positively affect neuritogenesis are important for developing new therapeutics for neurological diseases. Measurement of neurite outgrowth of rat cortical neurons using an automated image-based assay was used to determine the neuroplastic effects of the compounds of the present invention. The neurite outgrowth assay was performed at Neurofit SAS (France) as described below.
Pregnant Wistar rats (Janvier; France) were used for the study. They were delivered 6 days before their use. Upon arrival at Neurofit animal facility, they were housed one per cage and maintained in a room with controlled temperature (21-22° C.) and a reversed light-dark cycle (12 h/12 h; lights on: 17:30-05:30; lights off: 05:30-17:30) with food and water available ad libitum.
Female Wistar rats of 17 days gestation were killed by cervical dislocation and the fetuses were removed from the uterus. Their brains were placed in ice-cold medium of Leibovitz (L15, Gibco, Fisher bioblock, France). Cortices were dissected and meninges were carefully removed. The cortical neurons were dissociated by trypsinization for 30 min at 37° C. (trypsin-EDTA, Gibco) in presence of 0.1 mg/ml DNAse I (Roche, France). The reaction was stopped by addition of Dulbecco's Modified Eagle Medium (DMEM; Gibco) with 10% of fetal bovine serum (FBS; Gibco). The suspension was triturated with a 10-ml pipette and using a needle syringe 21G and centrifuged at 350×g for 10 min at room temperature. The pellet of dissociated cells was resuspended in a medium consisting of Neurobasal (Gibco) supplemented with 2% B27 supplement (Gibco), 0.5 mM L-Glutamine (Gibco), an antibiotic-antimicotic mixture. Viable cells were counted in a Neubauer cytometer using the trypan blue exclusion test (Sigma). Cells were seeded at a density of 10000 cells per well in 96-well plate (Costar) precoated with poly-L-lysine. Test compound at different concentrations were added to the cultures. Donepezil (positive control) was tested at 250 nM.
After 72 h (3 days) of plating, cultures were fixed with paraformaldehyde in PBS (4%, Sigma) for 30 min at 4° C. Then, cells were successively permeabilized with 0.1% Triton X100 for 30 min, saturated with PBS containing 3% of BSA and were incubated 1 h with anti-beta III tubulin antibody (Sigma) at 1/10 000 in PBS containing 0.5% of BSA. Cells were washed three times with PBS containing 0.5% of BSA, and they were incubated 1 h with goat anti-mouse antibody coupled with AF488 (Invitrogen A 11001) diluted at 1/1000 in PBS containing 0.5% of BSA. Finally, nuclei were staining with DAPI 1 mg/ml at 1/1000 in PBS containing 0.5% of BSA. After rinsing with PBS, the plate was filmed and neurite networks were examined and analyzed using High-Content Screening (CellInsight, Thermo Scientific). The average number of neurites per neuron and the average total length of neurites per neuron were the main parameters analyzed. Analysis of data was performed using analysis of variance (ANOVA). The Fisher's Protected Least Significant Difference test was used for multiple comparisons. A p value≤0.05 was considered significant. The software used is StatView 5.0 from SAS Institut.

5-HT2A [1] = target: T1, 5-HT2A (Homo sapiens, UniProt P28223); test: Serotonin 5-HT2A in vitro cellular IPOne agonism assay (HTRF); type: cell-based; set-up: host or cells: CHO-K1; settings: CHO-K1 cells, agonist mode
T1 sequence (P28223 whole entry): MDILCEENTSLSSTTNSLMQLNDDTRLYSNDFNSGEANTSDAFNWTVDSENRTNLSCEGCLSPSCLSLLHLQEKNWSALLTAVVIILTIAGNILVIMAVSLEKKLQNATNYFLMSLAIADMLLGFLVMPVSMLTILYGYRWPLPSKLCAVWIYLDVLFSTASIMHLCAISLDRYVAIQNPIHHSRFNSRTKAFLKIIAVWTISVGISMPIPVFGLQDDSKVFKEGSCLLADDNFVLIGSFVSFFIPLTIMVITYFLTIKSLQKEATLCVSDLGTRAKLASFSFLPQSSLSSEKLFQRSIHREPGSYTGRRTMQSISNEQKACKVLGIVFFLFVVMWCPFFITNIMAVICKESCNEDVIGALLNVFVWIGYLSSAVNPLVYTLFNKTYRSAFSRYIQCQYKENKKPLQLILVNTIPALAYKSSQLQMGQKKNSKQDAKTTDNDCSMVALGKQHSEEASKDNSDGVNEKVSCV
Method: (§1) Serotonin 5-HT2A In Vitro Cellular IPOne Agonism Assay. The 5-HT2A IPOne HTRF assay was performed at Epics Therapeutics S.A. (Belgium, FAST-0505I) using conventional methods. Briefly, CHO-K1 cells expressing human recombinant 5-HT2A receptor grown to mid-log phase in culture media without antibiotics were detached with PBS-EDTA, centrifuged, and resuspended in medium without antibiotics buffer. 20,000 cells were distributed in a 96 well plate and incubated overnight at 37° C. with 5% CO2.
For agonist testing, the medium was removed and 20 μl of assay buffer plus 20 μl of test compound or reference agonist are added in each well. The plate was incubated for 60 min. at 37° C. with 5% CO2.
(§2) After addition of the lysis buffer containing IP1-d2 and anti-IP1 cryptate detection reagents, plates were incubated 1-hour at room temperature, and fluorescence ratios were measured according to the manufacturer specification, with the HTRF kit.

5-HT2A [2] = target: T1, 5-HT2A; test: Serotonin 5-HT2A in vitro cellular IPOne antagonism assay; type: cell-based; set-up: host or cells: CHO-K1; settings: CHO-K1 cells, antagonist mode, reference agonist a-Me-5HT
Method: as §1, with “Serotonin 5-HT2A and 5-HT2C In Vitro” for “Serotonin 5-HT2A In Vitro”, “Cellular IPOne Antagonism Assay. The” for “Cellular IPOne Agonism Assay. The”, “(Belgium, FAST-0505I) in antagonism mode using conventional” for “(Belgium, FAST-0505I) using conventional”
For antagonist testing, a reference agonist a-Me-5HT was added and fluorescence signal monitored for several minutes, followed by addition of 20 μl of assay buffer plus 20 μl of test compound or reference antagonist ketanserin, in each well. The plate was incubated for 60 min. at 37° C. with 5% CO2.
as §2

5-HT2A [3] = target: T1, 5-HT2A; test: Serotonin 5-HT2A in vitro radioligand binding competition assay ([3H]-DOI); set-up: purchased Epics Therapeutics S.A. (Belgium) FAST-0505B; host or cells: membrane extracts; settings: [3H]-DOI competition, membrane extracts
Method: Serotonin 5-HT2A In Vitro Radioligand Binding Competition Assay. The 5-HT2A radioligand binding competition assay was performed at Epics Therapeutics S.A. (Belgium, FAST-0505B) using conventional methods. Briefly, competition binding was performed in duplicate in the wells of a 96 well plate (Master Block, Greiner, 786201) containing binding buffer (optimized for each receptor), membrane extracts (amount of protein/well optimized for each receptor), radiotracer [^3H]-DOI (final concentration optimized for each receptor) and test compound. Nonspecific binding was determined by co-incubation with 200-fold excess of cold competitor. The samples were incubated in a final volume of 0.1 ml at a temperature and for a duration optimized for each receptor and then filtered over filter plates. Filters were washed six times with 0.5 ml of ice-cold washing buffer (optimized for each receptor) and 50 μl of Microscint 20 (Packard) was added in each well. The plates were incubated 15 min on an orbital shaker and then counted with a TopCount™ for 1 min/well.

SMILES	activation of the 5HT2A sensor assay in agonist mode (5HT2A sensor)	head-twitch response (HTR) (mice)	Increase in Neurite Branching (rat cortical neurons)	Increase in Neurite Length (rat cortical neurons)	Increase in Neurite Number (rat cortical neurons)	EC50 (5-HT2A [1]) [nM]	IC50 (5-HT2A [2]) [nM]	IC50 (5-HT2A [3]) [nM]
CCN(CC)C(=O)[C@@H]1C=C2c3cccc4[nH]c(Br)c(c34)C[C@H]2N(C)C1 [BOL148]	do not activate	–	–	–	–	–	–	–
COc1ccc2[nH]cc(CCN(C)C)c2c1 [Compound 5-MeO-DMT, 5-MeO-DMT]	activate	robust, dose-dependent head-twitch response	–	–	–	–	–	–
CCN(CC)CCc1c[nH]c2cc(F)ccc12 [Compound 6-F-DET, 6-F-DET]	do not activate	–	–	–	–	–	–	–
COc1ccc2c(CCN(C)C)c[nH]c2c1 [Compound 6-MeO-DMT, 6-MeO-DMT]	do not activate	does not produce a HTR	–	–	–	–	–	–
CN1CCc2[nH]c3cc(Oc4ccccc4)ccc3c2CC1 [Compound 12, 3-methyl-8-phenoxy-1,2,3,4,5,6-hexahydroazepino[4,5-b]indole]	–	–	A	A	A	> 10000	101 to 1000	101 to 1000
CN1CCc2c(n(C)c3cc(Oc4ccccc4)ccc23)CC1 [Compound 14, 3,6-dimethyl-8-phenoxy-1,2,3,4,5,6-hexahydroazepino[4,5-b]indole]	–	–	B	A	B	> 10000	1000 to 10000	1000 to 10000
CN1CCc2[nH]c3cc(Oc4ccc(F)cc4)ccc3c2CC1 [Compound 16, 8-(4-fluorophenoxy)-3-methyl-1,2,3,4,5,6-hexahydroazepino[4,5-b]indole]	–	–	A	A	B	> 10000	101 to 1000	101 to 1000
CN1CCc2c(n(C)c3cc(Oc4ccc(F)cc4)ccc23)CC1 [Compound 18, 8-(4-fluorophenoxy)-3,6-dimethyl-1,2,3,4,5,6-hexahydroazepino[4,5-b]indole]	–	–	A	A	A	> 10000	101 to 1000	101 to 1000
Cn1c2c(c3c(OCc4ccccc4)cccc31)CCNCC2 [Compound 19, 10-(benzyloxy)-6-methyl-1,2,3,4,5,6-hexahydroazepino[4,5-b]indole]	–	–	B	B	B	1000 to 10000	101 to 1000	101 to 1000
CN1CCc2[nH]c3cccc(Oc4ccc(F)cc4)c3c2CC1 [Compound 22, 10-(4-fluorophenoxy)-3-methyl-1,2,3,4,5,6-hexahydroazepino[4,5-b]indole]	–	–	A	A	A	> 10000	10 to 100	10 to 100
CN1CCc2c(n(C)c3cccc(Oc4ccc(F)cc4)c23)CC1 [Compound 24, 10-(4-fluorophenoxy)-3,6-dimethyl-1,2,3,4,5,6-hexahydroazepino[4,5-b]indole]	–	–	B	A	B	> 10000	10 to 100	10 to 100
c1ccc(COc2ccc3[nH]c4c(c3c2)CCNCC4)cc1 [Compound 25, 9-(benzyloxy)-1,2,3,4,5,6-hexahydroazepino[4,5-b]indole]	–	–	–	A	–	> 10000	101 to 1000	101 to 1000
CN1CCc2[nH]c3ccc(OCc4ccccc4)cc3c2CC1 [Compound 26, 9-(benzyloxy)-3-methyl-1,2,3,4,5,6-hexahydroazepino[4,5-b]indole]	–	–	A	A	A	> 10000	101 to 1000	101 to 1000
CN1CCc2[nH]c3c(OCc4ccccc4)cccc3c2CC1 [Compound 28, 7-(benzyloxy)-3-methyl-1,2,3,4,5,6-hexahydroazepino[4,5-b]indole]	–	–	A	A	A	> 10000	10 to 100	10 to 100
CN1CCc2[nH]c3c(Br)ccc(OCc4ccccc4)c3c2CC1 [Compound 29, 10-(benzyloxy)-7-bromo-3-methyl-1,2,3,4,5,6-hexahydroazepino[4,5-b]indole]	–	–	B	A	B	10 to 100	10 to 100	10 to 100
CN(C)CCc1c[nH]c2ccccc12 [DMT, N,N-dimethyltryptamine]	activate	–	–	–	–	–	–	–
COc1cc(CC(C)N)c(OC)cc1I (stereo not drawn) [DOI]	activate	–	–	–	–	–	–	–
O=C(c1ccc(F)cc1)C1CCN(CCn2c(=O)[nH]c3ccccc3c2=O)CC1 [Ketanserin]	do not activate	–	–	–	–	–	–	–
CNC(C)Cc1ccc2c(c1)OCO2 [L-MDMA]	do not activate	–	–	–	–	–	–	–
CCN(CC)C(=O)[C@@H]1C=C2c3cccc4[nH]cc(c34)C[C@H]2N(C)C1 [LSD]	activate	–	–	–	–	–	–	–
